Data on 20 molecules can be found in US20260272895A1, “METHODS AND KITS FOR DELIVERY OF COMPOUNDS INTO CELLS” (Yale University, priority 2023, published 2026).

This experiment deals with brain cell types. Kind of experiment: In vivo two-photon imaging of mouse cortex after topical cortical administration of fluorophores. The following applies: for endothelial cell labeling/uptake after topical application to the brain: topical cortical application; for Target: cell type taking up the compound in vivo (Table 1). As to the method: Briefly, animals are anaesthetized via intraperitoneal injections of ketamine/xylazine or via inhaled isoflurane. A region of the skull (3×3 mm) is gently removed with a high-speed drill and the underlying dura is removed. A small glass coverslip is placed over the skull to allow long term optical access for in vivo imaging. Labeling with fluorescent dyes is performed either via intravenous injections or topically application to the cortical surface for 20 min prior to glass cover placement. After recovery, in vivo images are acquired using a two-photon microscope (Bruker Technologies) equipped with a multimodal (fixed wavelength 1040 nm and tunable wavelength) InSight X3 two-photon laser (Spectra Physics) and 20× water immersion objective (Zeiss 1.0N.A.). The two-photon laser is appropriately tuned to excite particular fluorescent dyes and proteins as needed. In selected cases, following in vivo imaging, mice will be sacrificed and perfused for follow up immunohistochemistry and high-resolution confocal imaging (Leica SP8) to further confirm colocalization of dyes and cells expressing particular transporters.
One-month-old wild-type mice were anesthetized using a ketamine/xylazine solution at doses of 100 mg/kg and 10 mg/kg, respectively. The fur around the skull area was shaved, and buprenex (0.1 mg per kg) and carprofen (5 mg per kg) were administered subcutaneously. Mice were kept on a heating pad at 37° C., and anesthesia was periodically monitored. The skin was treated with povidone-iodine solution, followed by cleaning with ethanol, and eye ointment was applied. A small skin section was excised to expose the skull. Thinning of the skull was performed in a circular area, followed by delicately lifting of the remaining skull without harm to the underlying brain. Within the circular region, the dura was gently removed using fine forceps, and a 4 mm cover glass was softly pressed onto the brain surface and affixed to the skull. Fluorescent dyes were applied either through intravenous injections or topically to the cortical surface for 20 minutes before placing the glass cover. A customized head bar was attached either by adhesive (for acute imaging) or permanently implanted (using dental cement, for chronic imaging) onto the skull. Mice were imaged under a two-photon microscope (Prairie Technologies) with a mode-locked MaiTai tunable laser (Spectra Physics). Imaging was performed with a 20× water immersion objective (Zeiss, 1.0NA). Images were captured at depths up to 300 μm from the pial surface using excitation wavelengths ranging from 750 to 950 nm as previously described. Mice undergoing chronic imaging received a recovery period on a heating pad post-surgery, and buprenex (0.1 mg per kg) and carprofen (5 mg per kg) were administered for 3 days.
Batches of 10 compounds were applied through the craniotomy to the cortical surface before placing a cover glass window. No additional washings were performed, and the cover glass was placed, allowing up to 3 hours of imaging of the cortical surface with a two-photon microscope. Following imaging, the data were analyzed to identify potential patterns of cell-specific labeling. […] Positive batches underwent three additional rounds of imaging, with each batch being sequentially split, until a single compound displaying cell-type-specific labeling was identified. As these compounds were not initially purified, the labeling may have resulted from fluorescent byproducts of synthesis. Consequently, large-scale synthesis, purification and characterization (FIGS. 29A-29D) of the identified compounds were conducted. The purified compounds were subsequently retested using in vivo imaging to confirm cell type specificity.
It was reasoned that the best strategy to identify fluorophores with specific affinity to certain cell types and transport mechanisms would be by direct screening in the intact in vivo brain microenvironment. […]

Each structure is given as a SMILES string.

On to `CN(Cc1cnc2nc(NS(=O)(=O)c3ccc(C4=c5cc6c7c(c5Oc5cc(Br)ccc54)CCC[N+]=7CCC6)c(S(=O)(=O)[O-])c3)nc(N)c2n1)c1ccc(C(=O)N[C@@H](CCC(=O)O)C(=O)O)cc1` [52a/52b], for which the “endothelial cell labeling/uptake after topical application to the brain” value (shortened to “endothelial cell labeling/uptake”) is recorded as “very strong”.

For the molecule `O=S(=O)([O-])c1cc(S(=O)(=O)O)ccc1C1=c2cc3c4c(c2Oc2cc(F)ccc21)CCC[N+]=4CCC3` [Compound 2, 2-(12-fluoro-1,2,3,5,6,7-hexahydrochromeno[2,3-f]pyrido[3,2,1-ij]quinolin-4-ium-9-yl)-5-sulfobenzenesulfonate], the Target entry is recorded as “Endothelial” and the “endothelial cell labeling/uptake” value is on record as “selectively labeling endothelial cells in vivo”. Consider `O=S(=O)([O-])c1cc(S(=O)(=O)O)ccc1C1=c2cc3c4c(c2Oc2cc(Cl)ccc21)CCC[N+]=4CCC3` [Compound 3, 2-(12-chloro-1,2,3,5,6,7-hexahydrochromeno[2,3-f]pyrido[3,2,1-ij]quinolin-4-ium-9-yl)-5-sulfobenzenesulfonate], for which the Target entry is recorded as “Endothelial”.

Take `O=S(=O)([O-])c1cc(S(=O)(=O)O)ccc1C1=c2cc3c4c(c2Oc2cc(I)ccc21)CCC[N+]=4CCC3` [Compound 4, 2-(12-iodo-1,2,3,5,6,7-hexahydrochromeno[2,3-f]pyrido[3,2,1-ij]quinolin-4-ium-9-yl)-5-sulfobenzenesulfonate]: the Target result is on record as “Endothelial” and the “endothelial cell labeling/uptake” value was “selectively labeling endothelial cells in vivo”.

Turning to `O=S(=O)([O-])c1cc(S(=O)(=O)O)ccc1C1=c2cc3c4c(c2Oc2c(Br)cccc21)CCC[N+]=4CCC3` [Compound 5, 2-(13-bromo-1,2,3,5,6,7-hexahydrochromeno[2,3-f]pyrido[3,2,1-ij]quinolin-4-ium-9-yl)-5-sulfobenzenesulfonate], the Target entry is given as “Endothelial”. As to `O=S(=O)([O-])c1cc(S(=O)(=O)O)ccc1C1=c2cc3c4c(c2Oc2ccc(Br)cc21)CCC[N+]=4CCC3` [Compound 6, 2-(11-bromo-1,2,3,5,6,7-hexahydrochromeno[2,3-f]pyrido[3,2,1-ij]quinolin-4-ium-9-yl)-5-sulfobenzenesulfonate], the Target entry was “Endothelial”.

As for `O=S(=O)([O-])c1cc(S(=O)(=O)O)ccc1C1=c2cc3c4c(c2Oc2c(Br)cc(Br)cc21)CCC[N+]=4CCC3` [Compound 7, 2-(11,13-dibromo-1,2,3,5,6,7-hexahydrochromeno[2,3-f]pyrido[3,2,1-ij]quinolin-4-ium-9-yl)-5-sulfobenzenesulfonate], the Target result is reported as “Endothelial”. The same measure, in the same setting: next, `O=S(=O)([O-])c1cc(S(=O)(=O)O)ccc1C1=c2cc3c4c(c2Oc2cc(F)c(F)cc21)CCC[N+]=4CCC3` [Compound 8, 2-(11,12-difluoro-1,2,3,5,6,7-hexahydrochromeno[2,3-f]pyrido[3,2,1-ij]quinolin-4-ium-9-yl)-5-sulfobenzenesulfonate]: “Endothelial”; `O=S(=O)([O-])c1cc(S(=O)(=O)O)ccc1C1=c2cc3c4c(c2Oc2cc(F)c(Cl)cc21)CCC[N+]=4CCC3` [Compound 9, 2-(11-chloro-12-fluoro-1,2,3,5,6,7-hexahydrochromeno[2,3-f]pyrido[3,2,1-ij]quinolin-4-ium-9-yl)-5-sulfobenzenesulfonate]: “Endothelial”; `O=S(=O)([O-])c1cc(S(=O)(=O)O)ccc1C1=c2cc3c4c(c2Oc2cc(F)c(Br)cc21)CCC[N+]=4CCC3` [Compound 10, 2-(11-bromo-12-fluoro-1,2,3,5,6,7-hexahydrochromeno[2,3-f]pyrido[3,2,1-ij]quinolin-4-ium-9-yl)-5-sulfobenzenesulfonate]: “Endothelial”.

On to `O=S(=O)([O-])c1cc(S(=O)(=O)O)ccc1C1=c2cc3c4c(c2Oc2cc(Cl)c(F)cc21)CCC[N+]=4CCC3` [Compound 11, 2-(12-chloro-11-fluoro-1,2,3,5,6,7-hexahydrochromeno[2,3-f]pyrido[3,2,1-ij]quinolin-4-ium-9-yl)-5-sulfobenzenesulfonate], for which the Target result is on record as “Endothelial”.

On to `O=S(=O)([O-])c1cc(S(=O)(=O)O)ccc1C1=c2cc3c4c(c2Oc2cc(Cl)c(Cl)cc21)CCC[N+]=4CCC3` [Compound 12, 2-(11,12-dichloro-1,2,3,5,6,7-hexahydrochromeno[2,3-f]pyrido[3,2,1-ij]quinolin-4-ium-9-yl)-5-sulfobenzenesulfonate], for which the Target entry is “Endothelial”.

In the case of `O=S(=O)([O-])c1cc(S(=O)(=O)O)ccc1C1=c2cc3c4c(c2Oc2cc(Cl)c(Br)cc21)CCC[N+]=4CCC3` [Compound 13, 2-(11-bromo-12-chloro-1,2,3,5,6,7-hexahydrochromeno[2,3-f]pyrido[3,2,1-ij]quinolin-4-ium-9-yl)-5-sulfobenzenesulfonate], the Target entry was “Endothelial”.

With `O=S(=O)([O-])c1cc(S(=O)(=O)O)ccc1C1=c2cc3c4c(c2Oc2cc(Br)c(F)cc21)CCC[N+]=4CCC3` [Compound 14, 2-(12-bromo-11-fluoro-1,2,3,5,6,7-hexahydrochromeno[2,3-f]pyrido[3,2,1-ij]quinolin-4-ium-9-yl)-5-sulfobenzenesulfonate], the Target result was “Endothelial”.

On to `O=S(=O)([O-])c1cc(S(=O)(=O)O)ccc1C1=c2cc3c4c(c2Oc2cc(Br)c(Cl)cc21)CCC[N+]=4CCC3` [Compound 15, 2-(12-bromo-11-chloro-1,2,3,5,6,7-hexahydrochromeno[2,3-f]pyrido[3,2,1-ij]quinolin-4-ium-9-yl)-5-sulfobenzenesulfonate], for which the Target result is “Endothelial”. Same read-out and setting: next, `O=S(=O)([O-])c1cc(S(=O)(=O)O)ccc1C1=c2cc3c4c(c2Oc2cc(I)c(Cl)cc21)CCC[N+]=4CCC3` [Compound 16, 2-(11-chloro-12-iodo-1,2,3,5,6,7-hexahydrochromeno[2,3-f]pyrido[3,2,1-ij]quinolin-4-ium-9-yl)-5-sulfobenzenesulfonate]: “Endothelial”; `O=S(=O)([O-])c1cc(S(=O)(=O)O)ccc1C1=c2cc3c4c(c2Oc2c1ccc(F)c2F)CCC[N+]=4CCC3` [Compound 19, 2-(12,13-difluoro-1,2,3,5,6,7-hexahydrochromeno[2,3-f]pyrido[3,2,1-ij]quinolin-4-ium-9-yl)-5-sulfobenzenesulfonate]: “Endothelial”; `O=S(=O)([O-])c1cc(S(=O)(=O)O)ccc1C1=c2cc3c4c(c2Oc2c1ccc(Cl)c2F)CCC[N+]=4CCC3` [Compound 20, 2-(12-chloro-13-fluoro-1,2,3,5,6,7-hexahydrochromeno[2,3-f]pyrido[3,2,1-ij]quinolin-4-ium-9-yl)-5-sulfobenzenesulfonate]: “Endothelial”. On the same count and under the same terms, to `O=S(=O)([O-])c1cc(S(=O)(=O)O)ccc1C1=c2cc3c4c(c2Oc2c1ccc(Br)c2F)CCC[N+]=4CCC3` [Compound 21, 2-(12-bromo-13-fluoro-1,2,3,5,6,7-hexahydrochromeno[2,3-f]pyrido[3,2,1-ij]quinolin-4-ium-9-yl)-5-sulfobenzenesulfonate] belongs “Endothelial”; to `O=S(=O)([O-])c1cc(S(=O)(=O)O)ccc1C1=c2cc3c4c(c2Oc2c1ccc(F)c2Cl)CCC[N+]=4CCC3` [Compound 22, 2-(13-chloro-12-fluoro-1,2,3,5,6,7-hexahydrochromeno[2,3-f]pyrido[3,2,1-ij]quinolin-4-ium-9-yl)-5-sulfobenzenesulfonate], “Endothelial”.
